{
  "source": "patent US6046238A",
  "about": "“Method for treating or preventing the spread of acne vulgaris” (TriStrata, Inc., priority 1999, dated 2000)",
  "experiment": "prophylactic effect in preventing the development of axillary foul odor",
  "assay_type": "in vivo, human",
  "conditions": "Example 5; 0.5% solution, topical; one person; up to 24 hours",
  "method": "A typical test for prophylactic effect in preventing the development of axillary foul odor was carried out as follows. A test composition was prepared by dissolving 0.5 g of phenyl 2-acetoxyethanoic acid or diphenyl 2-acetoxyethanoic acid in 70 ml of ethanol and 30 ml of propylene glycol. The control vehicle was prepared by mixing 70 ml of ethanol and 30 ml of propylene glycol. A human subject was instructed to take a shower in the morning using ordinary soap to clean the body surfaces. After the skin was dried, the test composition was topically applied to the left underarm area only. The vehicle control was topically applied to the right underarm area. Both underarm areas were monitored by the subject and at least one other person approximately every 8 hours to determine whether the test composition had any prophylactic effect in preventing the development of underarm foul odor in the left axilla as compared to the vehicle alone on the right control armpit.\nPresence or substantial absence of foul odor, detected by smell, was adopted as the criteria for ineffectiveness or effectiveness of the test composition.\nA total of seven subjects (four females; three males) participated in several studies. Most of these subjects could not use existing commercial products of antiperspirants or deodorants because of severe irritation after topical application. […]",
  "note": "Entries after “also recorded” stand apart in the source; their conditions may differ.",
  "data": [
    {"smiles": "CC(=O)OC(C(=O)O)c1ccccc1", "note": "(stereo not shown) [phenyl 2-acetoxyethanoic acid]", "values": [
      {"measurement": "prevention of axillary foul odor (left underarm)", "value": "did not produce any detectable odor, even after 24 hours; also recorded: substantially effective in preventing the development of axillary foul odor"}
    ]}
  ]
}
